This passage reports IC50 results from patent publication US12351571B2, “Substituted quinoxaline compounds as inhibitors of FGFR tyrosine kinases” (ARRAY BIOPHARMA INC., priority 2018, dated 2025).

The target of one test is human wild type FGFR3 (Homo sapiens (Human), UniProt P22607). Briefly: FGFR3 pERK Cell Assay. It is filed as cell-based. To be noted: HEK-293 cells, 1 hour compound, 100 ng/ml human FGF-acidic; maximum concentration 5 μM. The method, then: HEK-293 cells transfected with dox-inducible human wild type FGFR3 (SEQ ID NO: 5) were plated in a collagen or poly-D-lysine coated 96 well flat bottom plates at 4×10^5 cells/well in complete DMEM medium containing 10% FBS and 1 μg/ml doxycycline and allowed to attach for 24 h at 37° C., 5% CO2. Cells were treated with compound using 1:3 serial dilutions with a maximum final concentration of 5 μM. Compound was incubated on cells for 1 hour at 37° C., 5% CO2. Cells were then stimulated with a final concentration of 100 ng/ml human FGF-acidic (R&D Systems Cat number 232-FA/CF) for 5 minutes at 37° C., 5% CO2. Medium was removed, and cells were lysed with lysis buffer containing phosphatase and protease inhibitors. Phospho ERK1/2 was measured using the Meso Scale Discovery sandwich assay (Meso Scale Discovery cat. no. K151DWD). The assay captures phospho ERK1/2 and detects with a sulfo-tagged total ERK1/2 antibody. The chemiluminescent signal was read on the Sector Imager Plate reader. 100 POC was determined using no test compounds and 0 POC was determined using a control compound. The POC values were fit to a 4-parameter logistic curve as a function of the concentration of the compound, and the IC50 value is the point where the curve crosses 50 POC.

A further test addresses dephosphorylated FGFR1 (Homo sapiens (Human), UniProt P11362). Briefly: FGFR Enzyme Binding Assay (HTRF tracer displacement), FGFR1. To be noted: 5 nM dephosphorylated FGFR1, 60 minute incubation at 22° C.; read-out: FGFR1 Enz Binding IC50. The method, then: The potency of compounds inhibiting human isoforms of FGFR kinase was determined using Life Technologies' Homogeneous Time Resolved Fluorescence (HTRF)-based binding assay technology. An incubation was conducted with either 5 nM dephosphorylated FGFR1 (Array Biopharma, p1702; SEQ ID NO: 1, amino acids 458 to 765, dephosphorylated by co-expression with PTP1b (protein tyrosine phosphatase 1B)), 5 nM dephosphorylated FGFR2 (Life Technologies, Cat. No. PV4106 that had been dephosphorylated with Lambda protein phosphatase (New England Biolabs, cat #P0753)) or 5 nM phosphorylated FGFR3 (Array Biopharma, p1836; SEQ ID NO: 5, amino acids 449 to 759), 50 nM Kinase Tracer 236 (Life Technologies Cat. No. PR9078A), 2 nM Biotin-anti-6HIS (Life Technologies Cat. No. PV6090) and 2 nM Europium-Streptavidin (Life Technologies Cat. No. PV6025) along with test compound in a buffer consisting of 50 mM HEPES ((4-(2-hydroxyethyl)-1-piperazineethanesulfonic acid, pH 7.5), 5 mM MgCl2, 0.005% Triton X-100, 1 mM DTT, 1 mM NaVO4 and 2% DMSO in a final volume of 12 μL Compounds were typically prepared as a 3-fold or 4-fold serial dilution in DMSO and added to the assay to give the appropriate final concentration. After a 60 minute incubation at 22° C., the extent of tracer displacement was determined using a PerkinElmer EnVision multimode plate reader via HTRF dual wavelength detection, and the percent of control (POC) was calculated using a ratiometric emission factor. One hundred POC was determined using no test compound, and 0 POC was determined in the presence of 1 μM of an appropriate control inhibitor. A 4-parameter logistic curve was fit to the POC values as a function of the concentration of compound, and the IC50 value was the point where the best-fit curve crossed 50 POC.

Test [1] addresses recombinant human FGFR1 catalytic domain (Homo sapiens (Human), UniProt P11362). Briefly: FGFR Enzyme Activity Assay (LanthaScreen TR-FRET), FGFR1. It is filed as biochemical. The note with it: 15 μM ATP, 20 minutes incubation; read-out: FGFR1 Enz FRET IC50. The method, then: FGFR1 kinase activity was measured by the Invitrogen LanthaScreen™ Assay technology which directly measures the amount of substrate phosphorylation by Time-resolved fluorescence energy transfer (TR-FRET) using a flourescently-labeled peptide and Europium-labeled antibody. Briefly, 200 pM His-tagged recombinant human FGFR1 catalytic domain (amino acids 308-731) (Life Technologies Cat. No. PR4660A) was incubated with 100 nM Alexa Fluor® 647-Poly-GT Peptide Substrate (Life Technologies Cat. No. PV5836) and 15 μM ATP along with test compound in a buffer consisting of 250 mM HEPES, 25 mM MgCl2, 0.05% TritonX-100, pH 7.5, and 2% DMSO. Compounds were typically prepared in a threefold serial dilution in DMSO and added to the assay to give the appropriate final concentration. After a 20 minutes incubation at 22° C., an equal volume of 2 nM LanthaScreen® Eu-PY20 Antibody (Life Technologies Cat. No. PV5691) and 10 mM EDTA was added to quench the kinase reaction and start the detection reaction. After an additional 60 minute incubation at 22° C., the reaction was measured using a PerkinElmer EnVision multimode plate reader via TR-FRET dual wavelength detection, and the percent of control (POC) calculated using a ratiometric emission factor. 100 POC was determined using no test compounds and 0 POC was determined using no enzyme. The POC values were fit to a 4-parameter logistic curve as a function of the concentration of the compound, and the IC50 value is the point where the curve crosses 50 POC.
Background: TR-FRET usually uses a lanthanide donor and a delayed reading to cut background.

Test [2] deals with recombinant human FGFR2 cytoplasmic domain (Homo sapiens (Human), UniProt P21802). Kind of test: FGFR Enzyme Activity Assay (LanthaScreen TR-FRET), FGFR2. It is filed as biochemical. The note with it: 15 μM ATP, 20 minute incubation; read-out: FGFR2 Enz FRET IC50. The method, then:
FGFR2 kinase activity was measured by the Invitrogen LanthaScreen™ Assay technology which directly measures the amount of substrate phosphorylation by TR-FRET using a flourescently-labeled peptide and Europium-labeled antibody. Briefly, 200 pM His-tagged recombinant human FGFR2 cytoplasmic domain (amino acids 403-822) (Life Technologies Cat. No. PR5332A) was incubated with 100 nM Alexa Fluor® 647-Poly-GT Peptide Substrate (Life Technologies Cat. No. PV5836) and 15 μM ATP along with test compound in a buffer consisting of 250 mM HEPES, 25 mM MgCl2, 0.05% TritonX-100, pH 7.5, and 2% DMSO. Compounds were typically prepared in a threefold serial dilution in DMSO and added to the assay to give the appropriate final concentration. After a 20 minute incubation at 22° C., an equal volume of 2 nM LanthaScreen® Eu-PY20 Antibody (Life Technologies Cat. No. PV5691) and 10 mM EDTA were added to quench the kinase reaction and start the detection reaction. After an additional 60 minute incubation at 22° C., the reaction was measured using a PerkinElmer EnVision multimode plate reader via TR-FRET dual wavelength detection, and the percent of control (POC) calculated using a ratiometric emission factor. 100 POC was determined using no test compounds and 0 POC was determined using no enzyme. The POC values were fit to a 4-parameter logistic curve as a function of the concentration of the compound, and the IC50 value is the point where the curve crosses 50 POC.

Chain of recombinant human FGFR1 catalytic domain (P11362 other isoform, or with tags, fused parts or gaps): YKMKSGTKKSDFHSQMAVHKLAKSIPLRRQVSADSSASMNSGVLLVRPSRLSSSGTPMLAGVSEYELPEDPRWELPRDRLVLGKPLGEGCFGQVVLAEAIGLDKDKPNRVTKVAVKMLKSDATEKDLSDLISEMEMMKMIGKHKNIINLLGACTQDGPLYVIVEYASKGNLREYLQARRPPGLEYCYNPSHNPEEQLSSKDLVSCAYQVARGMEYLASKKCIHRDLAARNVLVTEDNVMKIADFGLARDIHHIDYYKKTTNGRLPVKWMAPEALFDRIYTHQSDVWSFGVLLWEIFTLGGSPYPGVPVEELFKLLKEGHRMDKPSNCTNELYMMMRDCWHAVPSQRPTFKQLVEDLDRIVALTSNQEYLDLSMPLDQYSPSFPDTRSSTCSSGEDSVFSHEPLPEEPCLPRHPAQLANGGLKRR
Chain of human wild type FGFR3 (P22607 23-806): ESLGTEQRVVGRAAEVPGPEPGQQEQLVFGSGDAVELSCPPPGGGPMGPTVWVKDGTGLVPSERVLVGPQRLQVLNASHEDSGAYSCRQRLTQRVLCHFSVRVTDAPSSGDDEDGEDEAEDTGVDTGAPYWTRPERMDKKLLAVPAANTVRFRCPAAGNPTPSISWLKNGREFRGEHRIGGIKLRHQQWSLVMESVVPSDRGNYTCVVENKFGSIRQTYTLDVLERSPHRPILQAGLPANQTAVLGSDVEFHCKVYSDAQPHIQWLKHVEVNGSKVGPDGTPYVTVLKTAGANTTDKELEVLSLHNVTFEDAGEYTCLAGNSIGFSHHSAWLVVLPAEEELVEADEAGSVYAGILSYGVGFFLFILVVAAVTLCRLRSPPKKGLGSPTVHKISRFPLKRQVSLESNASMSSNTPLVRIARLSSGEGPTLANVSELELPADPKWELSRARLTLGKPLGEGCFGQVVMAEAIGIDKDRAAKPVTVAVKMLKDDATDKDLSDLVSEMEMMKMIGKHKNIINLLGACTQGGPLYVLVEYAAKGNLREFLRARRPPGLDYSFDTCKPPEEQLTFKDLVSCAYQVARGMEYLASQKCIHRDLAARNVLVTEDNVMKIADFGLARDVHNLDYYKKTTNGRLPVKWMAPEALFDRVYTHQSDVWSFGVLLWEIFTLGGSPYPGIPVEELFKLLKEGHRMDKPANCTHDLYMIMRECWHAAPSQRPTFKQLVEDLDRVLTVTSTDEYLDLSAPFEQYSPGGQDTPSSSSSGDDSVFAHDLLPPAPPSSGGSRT
Chain of recombinant human FGFR2 cytoplasmic domain (P21802 402-821): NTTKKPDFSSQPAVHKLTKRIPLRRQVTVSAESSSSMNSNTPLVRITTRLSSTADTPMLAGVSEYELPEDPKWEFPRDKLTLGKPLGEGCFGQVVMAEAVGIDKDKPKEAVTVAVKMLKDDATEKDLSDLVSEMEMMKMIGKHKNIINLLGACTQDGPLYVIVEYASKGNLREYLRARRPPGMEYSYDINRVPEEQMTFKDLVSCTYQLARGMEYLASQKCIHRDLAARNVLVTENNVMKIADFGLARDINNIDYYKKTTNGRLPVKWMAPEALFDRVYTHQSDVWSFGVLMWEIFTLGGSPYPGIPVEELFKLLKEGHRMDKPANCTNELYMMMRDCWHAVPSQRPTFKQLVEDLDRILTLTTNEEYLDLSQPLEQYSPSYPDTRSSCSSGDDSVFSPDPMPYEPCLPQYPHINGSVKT
Chain of dephosphorylated FGFR1 (P11362 458-765): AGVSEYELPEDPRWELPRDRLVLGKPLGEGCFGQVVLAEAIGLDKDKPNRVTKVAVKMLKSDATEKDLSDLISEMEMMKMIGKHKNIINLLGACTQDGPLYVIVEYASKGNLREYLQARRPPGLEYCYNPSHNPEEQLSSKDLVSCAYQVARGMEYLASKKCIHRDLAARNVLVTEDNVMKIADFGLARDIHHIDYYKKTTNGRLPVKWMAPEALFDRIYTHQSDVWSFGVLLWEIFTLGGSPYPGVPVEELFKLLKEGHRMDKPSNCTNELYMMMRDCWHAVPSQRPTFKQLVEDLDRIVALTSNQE

As usually defined, the IC50 is the midpoint of a concentration-inhibition curve. In the case of `COc1cc(Nc2ccc3ncc(-c4cnc(N5CCN(C(=O)C6(F)CN(C(=O)/C=C/CN(C)C)C6)CC5)cc4C)nc3c2)cc(OC)c1` [Example 14, (E)-1-(3-(4-(5-(7-((3,5-dimethoxyphenyl)amino)-quinoxalin-2-yl)-4-methylpyridin-2-yl)-piperazine-1-carbonyl)-3-fluoroazetidin-1-yl)-4-(dimethylamino)but-2-en-1-one], the IC50 was 540 nM against human wild type FGFR3, 4140 nM at dephosphorylated FGFR1, 1560 nM in test [1] and 666 nM in test [2].
For `COc1cc(Nc2ccc3ncc(-c4cnn([C@@H]5CCN(C(=O)C6CN(C(=O)/C=C/CN(C)C)C6)C5)c4)nc3c2)cc(OC)c1` [Example 20, (R,E)-1-(3-(3-(4-(7-((3,5-dimethoxyphenyl)amino)-quinoxalin-2-yl)-1H-pyrazol-1-yl)pyrrolidine-1-carbonyl)azetidin-1-yl)-4-(dimethylamino)but-2-en-1-one], in that order: 2740 nM, 53 nM, 194 nM and 107 nM.
As for `C=CC(=O)N1CC(C(=O)N2CC(n3cc(-c4cnc5ccc(Nc6cc(OC)cc(OC)c6)cc5n4)cn3)C2)C1` [Example 16, 1-(3-(3-(4-(7-((3,5-dimethoxyphenyl)amino)-quinoxalin-2-yl)-1H-pyrazol-1-yl)azetidine-1-carbonyl)azetidin-1-yl)-prop-2-en-1-one], the half-maximal inhibitory concentration (IC50) came to 397 nM at human wild type FGFR3, 30 nM on dephosphorylated FGFR1, 48 nM in test [1] and 27 nM in test [2].
On the same counts, the results for `C=CC(=O)N1CC(C(=O)N2CC[C@@H](n3cc(-c4cnc5ccc(Nc6cc(OC)cc(OC)c6)cc5n4)cn3)C2)C1` [Example 21, (R)-1-(3-(3-(4-(7-((3,5-dimethoxyphenyl)amino)-quinoxalin-2-yl)-1H-pyrazol-1-yl)pyrrolidine-1-carbonyl)azetidin-1-yl)prop-2-en-1-one] are 390 nM, 38 nM, 295 nM and 187 nM.
On the same counts, the results for `C=CC(=O)N1CC(OC)(C(=O)N2CCC(n3cc(-c4cnc5ccc(Nc6cc(OC)cc(OC)c6)cc5n4)cn3)CC2)C1` [Example 24, 1-(3-(4-(4-(7-((3,5-dimethoxyphenyl)amino)-quinoxalin-2-yl)-1H-pyrazol-1-yl)piperidine-1-carbonyl)-3-methoxy-azetidin-1-yl)prop-2-en-1-one] are 19 nM, 53 nM, 229 nM and 211 nM.
On the same counts, the results for `C=CC(=O)N1CC(CN2CCC(n3cc(-c4cnc5ccc(Nc6cc(OC)cc(OC)c6)cc5n4)cn3)CC2)C1` [Example 30, 1-(3-((4-(4-(7-((3,5-dimethoxyphenyl)amino)quinoxalin-2-yl)-1H-pyrazol-1-yl)piperidin-1-yl)methyl)azetidin-1-yl)prop-2-en-1-one] are 24 nM, 34 nM, 147 nM and 159 nM.
`C=CC(=O)N1CC(C(=O)N2CCC(n3cc(-c4cnc5ccc(Nc6cc(OC)cc(OC)c6)cc5n4)cn3)CC2)C1` [Example 1, 1-(3-(4-(4-(7-((3,5-dimethoxyphenyl)amino)quinoxalin-2-yl)-1H-pyrazol-1-yl)piperidine-1-carbonyl)azetidin-1-yl)prop-2-en-1-one]: the IC50 against human wild type FGFR3 is 44 nM; on dephosphorylated FGFR1, 22 nM; in test [1], 54 nM; in test [2], 11 nM.
For `C=CC(=O)N1CC(F)(C(=O)N2CCN(c3ccc(-c4cnc5ccc(Nc6cc(OC)cc(OC)c6)cc5n4)cn3)CC2)C1` [Example 8, 1-(3-(4-(5-(7-((3,5-dimethoxyphenyl)amino)-quinoxalin-2-yl)pyridin-2-yl)piperazine-1-carbonyl)-3-fluoroazetidin-1-yl)-prop-2-en-1-one], in that order: 154 nM, 558 nM, 831 nM and 744 nM.
